# Laboratory results published in patent US20170260169A1, “INHIBITORS FOR STEROID RESPONSE ELEMENTS AND RNA POLYMERASE II AND RELATED METHODS” (priority 2007, published 2017).
# What was measured:
# [1] = tested on: binding of LNCaP nuclear extract factors to the ARE site in the PSA promoter; experiment: Electrophoretic mobility shift assay with DHT-stimulated LNCaP nuclear extract; assay type: biochemical
# Experimental: containing the PSA promoter ARE (underlined) was end-labeled with ^32P and annealed to its complement. Polyamides 1 and 2 were incubated with the duplex for 3 h in previously optimized buffer conditions (45). Nuclear extract from DHT-treated LNCaP cells (Genetex, San Antonio, Tex.) was then added for an additional 45 min. Complexes were run on a 5% polyacrylamide gel and visualized on a phosphorimager.
# The effects of polyamides 1 and 2 on the binding of factors present in the nuclear extract isolated from DHT-stimulated LNCaP cells to the ARE site in the PSA promoter was measured by an electrophoretic mobility shift assay (FIG. 8D).
# [2] = tested on: ARE of the PSA promoter; experiment: Quantitative DNase I footprint titration on pAR-PSA fragment; assay type: binding
# From the text: Plasmid pAR-PSA was constructed by inserting a 70-bp sequence from the PSA promoter containing the ARE into pUC19 plasmid. […] Detailed experimental protocols are reported elsewhere (44). The proximal PSA promoter contains the ARE [NT] ID NO:15) (FIG. 8A). […] However, 1 is observed to bind the sequence [NT]≈12 bp 5' to the ARE, which is an expected binding site for this molecule.
# [3] = tested on: DNA damage markers (γH2A.X, ATM, DNA-PKcs, p53, Chk2); experiment: Immunoblot of DNA damage markers, p53 and PARP in LNCaP cells; assay type: cell-based
# Experimental: Samples for immunoblot analysis were prepared by plating LNCaP or DU145 cells at 1 million cells per 10 cm plate. Cells were allowed to adhere for 24-36 hr prior to incubation with compound. After the appropriate incubation time cells were washed once with ice cold PBS and harvested in ice cold 125 μL lysis buffer (50 mM Tris-HCl pH 7.4, 150 mM NaCl, 1 mM EDTA, 1% Triton X100) containing protease inhibitor cocktail (Roche), 1 mM PMSF (Sigma), and phosphatase inhibitors (Sigma). Samples were allowed incubate on ice for 10 min with vortexing once every 3 min. Cellular debris was pelleted by spinning at 14,000 rpm for 15 min to collect the supernatant. Samples were then quantified for protein content with the Bradford assay (Bio-rad) and boiled with 4× sample buffer (Li-Cor) for 5 min. Protein electrophoresis was performed in 4-20% precast Tris glycine SDS gels (Bio-rad) and transferred to PVDF membranes. Membrane blocking was done with Odyssey Blocking Buffer (Li-Cor). The following antibodies used to probe changes in protein levels or phosphorylation states: RBP1 (Santa Cruz Biotechnology, N20), p53 (Santa Cruz Biotechnology, DO1), phospho-Chk2-Thr68 (Cell Signaling Technology), Phospho-p53-Ser15 (Cell Signaling Technology), phosphor-H2A.X-Ser139 (Cell Signaling Technology), phosphor-ATM-Ser1981 (Abcam), phosphor-DNA-PKcs-Ser2056 (Abcam), and […] (Abcam). […]
# [4] = tested on: AR occupancy at the PSA promoter and enhancer; experiment: Chromatin immunoprecipitation with anti-AR, PSA promoter and enhancer; assay type: cell-based
# Experimental: LNCaP cells were plated in 15-cm diameter plates at a density of 2×10^6 cells per plate. Media, polyamide treatment, time course, and DHT stimulation were the same as described above. After the 16-h DHT treatment, cells were treated with 1% formaldehyde for 10 min. Chromatin was isolated and sheared. Antibodies to AR (AR-20, Santa Cruz Biotechnology, Santa Cruz, Calif.) were used to immunoprecipitate AR-bound DNA fragments. Crosslinks were reversed, and PCRs using primers targeted to the regions of interest were used to assess enrichment of bound fragments as compared with mock-precipitated (no antibody) controls. PCRs were monitored with SYBR Green PCR Master Mix (Applied Biosystems) on an ABI 7300 instrument. Primer sequences and a more detailed experimental protocol are available upon request.
# [5] = Liver microsomal stability, human; details: 1 μM, Human, 1 hr at 37° C., 1 mg/ml microsomes
# Experimental: Briefly, each polyamide was incubated with 1 mg/ml human or mouse microsomes at 37° C. The reaction was incubated in 100 mM KH2PO4, 2 mM NADPH, 3 mM MgCl2 at pH 7.4. Samples were also incubated in the absence of NADPH to detect NADPH-free degradation. After 60 min the samples were mixed with an equal volume of ice cold methanol stop solution. The mixture was allowed to sit on ice for at least 10 min and mixed with an equal volume of water. The samples were then centrifuged to remove the precipitates and the samples were analyzed by LC/MS/MS. Data represents % remaining by comparing with time zero concentration. The experiments were performed in duplicate.
# [6] = tested on: RNAP2 genomic occupancy; experiment: ChIP-seq of RNA polymerase II occupancy in LNCaP cells; assay type: cell-based, human
# [7] = tested on: LNCaP xenografts; experiment: LNCaP xenografts in male NSG mice; assay type: in vivo
# Experimental: All mice experiments were conducted under an approved protocol by the Institutional Animal Care and Use Committee of the California Institute of Technology. Male NOD scid gamma (NSG) mice were purchased from The Jackson Laboratory. The animals were individually caged and maintained on a standard light-dark cycle. NSG mice were engrafted with LNCaP cells (2.5 million cells) in a mixture of 1:1 media and matrigel in the left flank. Tumors were grown to ˜100 mm^3 (L×W^2) before beginning treatment with compound or vehicle. Py-Im polyamide 77 was administered once every 3 days in a 5% DMSO:PBS vehicle solution until the experiment endpoint.
# To investigate if polyamide 77 could be detected in peripheral blood after SC injections, 120 nmol of 77 (in 5% DMSO/PBS) was injected into the right flank of four C57BL/6 mice. Blood was collected from anesthetized mice via retroorbital collection at 5 minutes, 4 h, and 12 h after injection, then processed by methods previously described and analyzed by HPLC (35). For measurement of serum PSA (KLK3) and uric acid, blood was collected from anesthetized mice via retroorbital collection at experimental endpoint and serum was separated from blood by centrifugation. Serum PSA (KLK3) was measured by ELISA (R&D systems) according to manufacturer's instructions. Uric acid was measured as described (36).
# Tumors were resected immediately after euthanasia and fixed in neutral buffered formalin. Selected samples were embedded in paraffin, sectioned and stained with hematoxylin and eosin (H&E). Selected sections were assessed by deoxynucleotidyltransferase dUTP nick-end labeling (TUNEL) as described (45).
# Mice experiments were conducted under an approved protocol by the Institutional Animal Care and Use Committee of the California Institute of Technology. Male C57BL6/J mice and male NSG mice were purchased from The Jackson Laboratory. All animals were maintained on a standard light-dark cycle. LNCaP cells (2.5 million cells) were engrafted in a mixture of 1:1 media and matrigel in the left flank of NSG mice. Tumors were allowed grow to ˜200 mm^3 (0.5×L×W^2) before treatment. Py-Im polyamide 78 was administered by SC injection once every 3 d at 1 mg/kg in a 20% (vol/vol) DMSO:Normal saline vehicle solution for 6 injections. Animals were sacrificed two days after the final injection. Animal weight and general health were monitored daily. Fourteen animals were used for each treatment group.
# [8] = 20 nmol SC every three days, three injections
structure (smiles),measurement,setting,value
"CN(CCCNC(=O)c1cccc(C(=O)O)c1)CCCNC(=O)c1cc(NC(=O)c2cc(NC(=O)c3cc(NC(=O)c4nc(NC(=O)[C@H](N)CCNC(=O)c5cc(NC(=O)c6cc(NC(=O)c7cc(NC(=O)c8nccn8C)cn7C)cn6C)cn5C)cn4C)cn3C)cn2C)cn1C [Polyamide 1, ImPyPyPy-2-(R)H^2Nγ-ImPyPyPy-NHMe-IPA]",concentration inhibiting binding to the labeled duplex,[1],≥ 10 nM
same,binding at the other half-site of the ARE,"[2]; 5′-AGTGCT-3′, single base pair mismatch site",Minimal binding
same,Ka,[2]; ARE consensus half-site 5′-AGAACA-3′,8.3±1.7×10^9 M^−1
same,Ka,"[2]; ARE half site 5′-AGAACA-3′, FIG. 8 legend",8.3±1.7×10^9
same,Kd,[2]; half-site of the ARE of the PSA promoter,subnanomolar
same,cellular markers of DNA damage (phosphorylation),[3],did not induce cellular markers of DNA damage
same,p53 accumulation and PARP cleavage,[3],modest accumulation of p53 and PARP cleavage were observed
same,occupancy of AR at the PSA promoter and enhancer,[4]; 1 μM as printed,decreased occupancy
same,AR occupancy at the PSA promoter and enhancer,"[4]; 10 μM, FIG. 9 legend",decreased
same,Mean remaining parent NADPH-free,[5],92.3%
same,Mean remaining parent with NADPH,[5],96.9%
same,RNAP2 occupancy at enhancer loci,[6]; DHT + 77,did not significantly change
same,RNAP2 occupancy across genic regions,"[6]; DHT + 77, 48 h",global decrease of RNAP2 occupancy across genic regions
same,"tumor weight, mean",[7]; [8],112 mg
same,"tumor weight, median",[7]; [8],94 mg
same,"tumor weight, range",[7]; [8],47 to 201 mg
same,"body weight, LNCaP tumor-bearing NSG mice","[7]; 20 nmol, three injections",exhibited weight loss
same,"distress and weight, tumor-free NSG mice","[7]; 20 nmol, three injections",no signs of distress or weight loss
same,reduction of tumor growth,"[7]; after three rounds of treatment, vs vehicle",64%
same,serum PSA post-treatment,[7]; compared to vehicle,lower
same,immunohistological analysis of tumors,"[7]; mouse, in vivo",evidence of cell death by TUNEL stain
same,serum uric acid,"[7]; tumor bearing mice, vs vehicle and non-tumor bearing treated mice",increases serum uric acid
